Molecular target: T1, TRAP1 enzyme (Homo sapiens, UniProt Q12931)
T1 construct: 150 nM Trap1 enzyme was incubated with various concentrations of the test compound
T1 sequence (Q12931 60-704): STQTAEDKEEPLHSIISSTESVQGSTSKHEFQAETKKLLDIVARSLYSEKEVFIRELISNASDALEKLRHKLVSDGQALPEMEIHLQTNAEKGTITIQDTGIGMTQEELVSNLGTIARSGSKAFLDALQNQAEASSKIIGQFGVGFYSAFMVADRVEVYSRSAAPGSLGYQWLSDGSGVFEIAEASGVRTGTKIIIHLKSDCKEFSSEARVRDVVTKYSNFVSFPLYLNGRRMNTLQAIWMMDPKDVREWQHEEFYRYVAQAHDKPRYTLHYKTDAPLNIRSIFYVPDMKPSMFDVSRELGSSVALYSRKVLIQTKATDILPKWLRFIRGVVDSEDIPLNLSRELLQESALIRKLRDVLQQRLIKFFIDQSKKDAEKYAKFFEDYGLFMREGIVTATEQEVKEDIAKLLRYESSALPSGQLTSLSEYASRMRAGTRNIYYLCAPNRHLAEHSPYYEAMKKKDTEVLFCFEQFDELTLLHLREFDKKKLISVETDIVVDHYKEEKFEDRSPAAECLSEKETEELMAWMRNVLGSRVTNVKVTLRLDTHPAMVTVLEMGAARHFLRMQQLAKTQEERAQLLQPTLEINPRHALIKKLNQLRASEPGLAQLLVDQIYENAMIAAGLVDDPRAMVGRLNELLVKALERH
Assay: ADP Glo assay of TRAP1 ATPase activity
Assay type: biochemical
Details: for EC50: concentration for half maximal activation, read-out: ADP GLO DRC: GeoMean EC50; for Emax: maximal percent activation, read-out: ADP GLO DRC: Mean Emax
Outline: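 ADP-Glo luminescence quantifying ADP from 150 nM TRAP1 preincubated 30 min at 37° C with compound (0.79–100 μM), then 20 μM ATP for 60 min at 37° C. Buffer: 25 mM Pipes pH 7.5, 40 mM KCl, 0.05 mM MgCl2, EGTA, BSA, detergents. ADP from ATP/ADP standard curve; Emax and EC50 from sigmoidal fit.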

Row | Structure (SMILES) | EC50 [µM] | Emax [%]
1 | COc1ncc(NC(=O)c2coc(-c3ccccc3)n2)cc1S(=O)(=O)Nc1c(C)cccc1C1CC1 [compound 1986, N-(5-(N-(2-cyclopropyl-6-methylphenyl)sulfamoyl)-6-methoxypyridin-3-yl)-2-phenyloxazole-4-carboxamide] | < 10 | 200 to 300
2 | COc1ccc(F)cc1C(=O)Nc1cnc(OC)c(S(=O)(=O)Nc2c(C)cccc2C)c1 [compound 1990, N-(5-(N-(2,6-dimethylphenyl)sulfamoyl)-6-methoxypyridin-3-yl)-5-fluoro-2-methoxybenzamide] | 10 to 20 | 200 to 300
3 | COc1ncc(NC(=O)c2coc(-c3ccccc3)n2)cc1S(=O)(=O)Nc1ccc(F)c(F)c1C [compound 2000] | 10 to 20 | 200 to 300
4 | COc1ncc(NC(=O)c2coc(-c3ccccc3)n2)cc1S(=O)(=O)Nc1cc(F)c(F)cc1C [compound 2002] | 10 to 20 | 160 to 199
5 | COc1ncc(NC(=O)c2csc(-c3ccccc3)n2)cc1S(=O)(=O)Nc1ccccc1CO [compound 2004] | 10 to 20 | 160 to 199
6 | COc1ncc(NC(=O)c2csc(-c3ccccc3)n2)cc1S(=O)(=O)Nc1ccc(C(F)(F)F)cn1 [compound 2005] | 20 to 100 | 119 to 159
7 | COc1ncc(NC(=O)c2csc(-c3ccccc3)n2)cc1S(=O)(=O)Nc1c(C#N)cccc1C(F)(F)F [compound 2068] | 20 to 100 | 200 to 300
8 | COc1ncc(NC(=O)c2csc(-c3ccccc3)n2)cc1S(=O)(=O)Nc1ncc(C(F)(F)F)cn1 [compound 2069] | 20 to 100 | 200 to 300
9 | COc1ncc(NC(=O)c2coc(-c3ccccc3)n2)cc1S(=O)(=O)Nc1c(C)ccc(C#N)c1C [compound 2072] | < 10 | 160 to 199
10 | COc1ncc(NC(=O)c2csc(-c3ccccc3)n2)cc1S(=O)(=O)Nc1sc2c(c1C#N)CCCC2 [compound 2088] | 20 to 100 | 200 to 300
11 | COc1ncc(NC(=O)c2c[nH]c(-c3ccccc3)n2)cc1S(=O)(=O)Nc1c(C)cccc1C [compound 2092] | < 10 | 200 to 300
12 | COc1ncc(NC(=O)c2ncc(-c3ccccc3)o2)cc1S(=O)(=O)Nc1cccc(C(F)(F)F)n1 [compound 2119] | 20 to 100 | 200 to 300
13 | COc1ncc(NC(=O)c2csc(-c3ccccc3)n2)cc1S(=O)(=O)Nc1cccc(C#N)n1 [compound 2142] | 20 to 100 | 200 to 300
14 | COc1ncc(NC(=O)c2ncc(-c3ccccc3)o2)cc1S(=O)(=O)Nc1cccc(C#N)n1 [compound 2148] | 20 to 100 | 160 to 199
15 | COc1ncc(NC(=O)c2coc(-c3cc(F)c(F)c(F)c3)n2)cc1S(=O)(=O)Nc1cccc(C(F)(F)F)n1 [compound 2151] | 20 to 100 | 200 to 300
16 | COc1ncc(NC(=O)c2csc(-c3ccccc3)n2)cc1S(=O)(=O)Nc1cc(F)c(C)cc1C#N [compound 2155] | 10 to 20 | 200 to 300
17 | COc1ncc(NC(=O)c2coc(-c3ccccc3)n2)cc1S(=O)(=O)Nc1cc(C(F)(F)F)n[nH]1 [compound 2156] | 20 to 100 | 200 to 300
18 | COc1ncc(NC(=O)c2coc(-c3ccccc3)n2)cc1S(=O)(=O)Nc1cccc(C#N)n1 [compound 2157] | 20 to 100 | 160 to 199
19 | COc1ncc(NC(=O)c2ncc(-c3ccccc3)o2)cc1S(=O)(=O)Nc1cc(C(F)(F)F)n[nH]1 [compound 2361] | 20 to 100 | 119 to 159
20 | COc1ncc(NC(=O)c2csc(-c3ccccc3)n2)cc1S(=O)(=O)Nc1cc(C(F)(F)F)ncc1C [compound 2365] | 20 to 100 | 200 to 300
21 | COc1ncc(NC(=O)c2ncc(-c3ccccc3)o2)cc1S(=O)(=O)Nc1ccc(F)c(F)c1C [compound 2366] | < 10 | 160 to 199
22 | COc1ncc(NC(=O)c2coc(-c3ccccc3)n2)cc1S(=O)(=O)Nc1ccc(F)cc1C(C)C [compound 2381] | < 10 | 200 to 300
23 | COc1ncc(NC(=O)c2coc(-c3cccnc3)n2)cc1S(=O)(=O)Nc1c(C)cccc1C [compound 2387] | 20 to 100 | 200 to 300
24 | COc1ncc(NC(=O)c2csc(-c3cccnc3)n2)cc1S(=O)(=O)Nc1ccc(F)c(F)c1C [compound 2390] | 10 to 20 | 200 to 300
25 | COc1ncc(NC(=O)c2ncc(-c3ccccc3)o2)cc1S(=O)(=O)Nc1nc(C(C)(C)C)ns1 [compound 2396] | 20 to 100 | 160 to 199

Row | Structure (SMILES) | EC50 [µM] | Emax [%]
26 | COc1ncc(NC(=O)c2cnc(-c3ccccc3)o2)cc1S(=O)(=O)Nc1cccc(C(F)(F)F)n1 [compound 2397] | 20 to 100 | 119 to 159
27 | COc1ncc(NC(=O)c2coc(-c3ccccc3)n2)cc1S(=O)(=O)Nc1nc(C(C)(C)C)ns1 [compound 2403] | 20 to 100 | 200 to 300
28 | COc1ncc(NC(=O)c2csc(-c3cc(F)c(F)c(F)c3)n2)cc1S(=O)(=O)Nc1cc(C)n(C(C)C)n1 [compound 2407] | 10 to 20 | 119 to 159
29 | Cc1cccc(C)c1NS(=O)(=O)c1cc(NC(=O)c2csc(-c3ccccc3)n2)cnc1OCC(O)CO (stereo not shown) [compound 2418] | < 10 | 160 to 199
30 | COc1ncc(NC(=O)c2csc(-c3ccccc3OCC(O)CO)n2)cc1S(=O)(=O)Nc1c(C)cccc1C (stereo not shown) [compound 2427] | < 10 | 200 to 300
31 | COc1ncc(NC(=O)c2csc(-c3ccccc3)n2)cc1S(=O)(=O)N(CC(O)CO)c1ccc(Cl)cc1 (stereo not shown) [compound 2431] | < 10 | 160 to 199
32 | COc1ncc(NC(=O)c2csc(-c3cccc(Cl)n3)n2)cc1S(=O)(=O)Nc1c(C)cccc1C [compound 2445] | < 10 | 160 to 199
33 | COc1ncc(NC(=O)c2coc(-c3ccccc3)n2)cc1S(=O)(=O)Nc1cccc2cnc(C)cc12 [compound 2447] | 10 to 20 | 160 to 199
34 | COc1ncc(NC(=O)c2csc(-c3cccc(OCC4COC(C)(C)O4)n3)n2)cc1S(=O)(=O)Nc1c(C)cccc1C (stereo not shown) [compound 2454] | < 10 | 119 to 159
35 | COc1ncc(NC(=O)c2csc(-c3cccc(OCC(O)CO)n3)n2)cc1S(=O)(=O)Nc1c(C)cccc1C (stereo not shown) [compound 2463] | < 10 | 200 to 300
36 | COc1ncc(NC(=O)c2csc(-c3cc(F)c(F)c(F)c3)n2)cc1S(=O)(=O)Nc1c(C)csc1C [compound 2466] | < 10 | 160 to 199
37 | COc1ncc(NC(=O)c2ncc(-c3ccccc3)o2)cc1S(=O)(=O)Nc1c(C)cccc1C [compound 2470] | < 10 | 160 to 199
38 | COc1ncc(NC(=O)c2c[nH]c(C(F)(F)F)n2)cc1S(=O)(=O)Nc1c(C)cccc1C [compound 2474] | 20 to 100 | 160 to 199
39 | COc1ncc(NC(=O)c2ncoc2C(C)C)cc1S(=O)(=O)Nc1ccc(Cl)cc1 [compound 2487] | 10 to 20 | 160 to 199
40 | [2H]c1c([2H])c([2H])c(C([2H])([2H])[2H])c(NS(=O)(=O)c2cc(NC(=O)c3csc(-c4ccccc4)n3)cnc2OC)c1[2H] [compound 2492] | < 10 | 119 to 159
41 | [2H]c1c([2H])c([2H])c(C([2H])([2H])[2H])c(NS(=O)(=O)c2cc(NC(=S)c3coc(-c4ccccc4)n3)cnc2OC)c1[2H] [compound 2493] | 20 to 100 | 160 to 199
42 | COc1ncc(NC(=O)c2csc(C(C)C)n2)cc1S(=O)(=O)Nc1c(C)cccc1C [compound 2496] | 10 to 20 | 160 to 199
43 | COc1ncc(NC(=O)c2coc(-c3ccccc3)n2)cc1S(=O)(=O)Nc1c(C2CC2)cccc1C1CC1 [compound 2497] | < 10 | 160 to 199
44 | COc1ncc(NC(=O)c2csc(C(F)(F)F)n2)cc1S(=O)(=O)Nc1c(C)cccc1C [compound 2498] | 10 to 20 | 160 to 199
45 | COc1ncc(NC(=O)c2csc(-c3ccccc3)n2)cc1S(=O)(=O)Nc1c(C2CC2)cccc1C1CC1 [compound 2499] | < 10 | 160 to 199
46 | [2H]c1c([2H])c([2H])c(-c2nc(C(=O)Nc3cnc(OC)c(S(=O)(=O)Nc4c(C)cccc4C)c3)cs2)c([2H])c1[2H] [compound 2500] | < 10 | 119 to 159
47 | COc1ncc(NC(=O)c2csc(C)n2)cc1S(=O)(=O)Nc1c(C)cccc1C [compound 2501] | 20 to 100 | 160 to 199
48 | COc1ncc(NC(=O)c2csc(Br)n2)cc1S(=O)(=O)Nc1c(C)cccc1C [compound 2502] | 10 to 20 | 119 to 159
49 | COc1ncc(NC(=O)c2csc(-c3ccccc3)n2)cc1S(=O)(=O)Nc1c(C)cccc1P(C)(C)=O [compound 2506] | 20 to 100 | 200 to 300
50 | COc1ncc(NC(=O)c2ncc(-c3ccccc3)o2)cc1S(=O)(=O)Nc1nc(C(F)(F)F)ccc1C [compound 2512] | 10 to 20 | 119 to 159

— patent US20230159509A1 (Amathus Therapeutics, Inc., priority 2020, published 2023)
